Reference: patent US20090088373A1, “USE OF COMPOSITIONS TO ENHANCE INNATE IMMUNE RESPONSE” (priority 2007, published 2009)

What was measured:
[1] = tested on: Staphylococcus aureus ΔmprF; assay: Growth of S. aureus ΔmprF (OD600) mixed with lysates of stimulated normal human keratinocytes; assay type: cell-based; conditions: for Bacterial growth OD600 (Mean): S. aureus + lysates of NHEK stimulated with 10 nM pimecrolimus, 1 nM 1.25D3 or combination, 37° C.
Experimental: (§1) To assess the effect of pimecrolimus on the innate immune response of the epidermis against bacteria, cultures of normal human keratinocytes (NHEK) are stimulated with a concentration of 10 nM pimecrolimus, 1 nM 1.25D3 (active 1.25 D-hydroxy calciferol) or their combination. Cells are lysed via sonication 20 minutes in an ice bath, after which cell lysates were mixed with Staphylococcus aureus ΔmprF cultures and incubated at 37° C. Bacterial growth over time is monitored by OD600 (Table 1). To determine if Pimecrolimus alone was able to kill Staphylococcus aureus ΔmprF, Pimecrolimus in a concentration of 10 nM is co-incubated with Staphylococcus aureus ΔmprF cultures and incubated at 37° C. (Table 2). Bacterial growth is monitored by OD600 (*: p<0.05; **: p<0.01; Student's t-test).

[2] = tested on: Staphylococcus aureus ΔmprF; assay: Direct co-incubation of Pimecrolimus with S. aureus ΔmprF cultures (OD600); assay type: cell-based; conditions: for Bacterial growth OD600 (Mean): 10 nM Pimecrolimus co-incubated with S. aureus, no keratinocyte lysate, 37° C.
Experimental: as §1

cathelicidin = assay: Cathelicidin mRNA expression in normal human keratinocytes (NHEK); assay type: cell-based; set-up: Cathelicidin mRNA expression (Mean) / Cathelicidin mRNA expression (means): unit not given here; conditions: for Cathelicidin mRNA expression (means): 1 uM tacrolimus, 1 ug/ml CsA, 25ng/ml rapamycin; for Cathelicidin mRNA expression (Means of N = 3): Example 6, 10 nM Pimecrolimus, 1 nM 1,25D3
Experimental: (§2) To assess the effect of pimecrolimus on the innate immune response of the epidermis, cultures of normal human keratinocytes (NHEK) are stimulated with combinations of a concentration of 10 nM pimecrolimus, 1 μg/ml TLR 2/CD14 ligand—peptidoglycan (PGN), 10 μg/ml lipoteichoic acid (LTA), 2 0.1 μg/ml TLR 2/6 ligand—Malp-, and/or 0.1 μg/ml TLR 4/CD14 ligand—lipopolysaccharide (LPS). Expression of cathelicidin mRNA (Table 3) and protein as well as Human Beta Defensin (HBD) 2 (Table 4) and HBD3 (Table 5) expression in normal human keratinocytes is measured.
(§3) To assess the effect of pimecrolimus on the innate immune response of the epidermis, cultures of normal human keratinocytes (NHEK) are stimulated with a concentration of 10 nM pimecrolimus,1 nM 1.25 D3, 0.1 μg/ml TLR2/6 ligand Malp-2 or their combination. Expression of cathelicidin, CD14 and TLR2 mRNA normal human keratinocytes is measured and evaluated accordingly to the procedures as detailed in Example 2 above.
To assess the effect of pimecrolimus on the innate immune response of the epidermis, cultures of normal human keratinocytes (NHEK) are stimulated with a concentration of 10 nM pimecrolimus, 1 uM tacrolimus, 1 ug/ml CsA, 25ng/ml rapamycin, or a combination of pimecrolimus and rapamycin, each of these with or without 0.1 μg/ml TLR2/6 ligand Malp-2. Cathelicidin mRNA expression is evaluated.
(§4) To assess the effect of time dependent effects of pimecrolimus on the innate immune response of the epidermis, cultures of normal human keratinocytes (NHEK) are stimulated with 10 nM Pimecrolimus and low dose calciferol (1,25D3) 1 nM for different time points. mRNA expression of cathelicidin, CD14 and TLR2 is analyzed by qPCR.
To assess the effect of varying levels of pimecrolimus on the innate immune response of the epidermis, cultures of normal human keratinocytes (NHEK) are stimulated with 0 nM, 5 nM, 10 nM, 20 nM, 30 nM, […], […] and 60 nM concentrations of pimecrolimus. Expression of cathelicidin mRNA expression is measured and evaluated accordingly to the procedures as detailed in Example 2 above.
To assess the effect of calciferol on varying levels of pimecrolimus on the innate immune response of the epidermis, cultures of normal human keratinocytes (NHEK) are stimulated with 0.01 nM, 0.1 nM, 1 nM and 10 nM concentrations of pimecrolimus with or without 1 nM concentrations of calciferol for 24 hours. Expression of cathelicidin mRNA and gene expression of TLR2 is measured and evaluated accordingly to the procedures as detailed in Example 2 above.

[3] = tested on: Human Beta Defensin (HBD) 2; assay: HBD2 expression in normal human keratinocytes (NHEK); assay type: cell-based; set-up: unit not given here; conditions: Example 2
Experimental: as §2

TLR1 = TLR1 gene expression by qPCR in NHEK; assay type: cell-based, human; conditions: Example 3; 10 nM pimecrolimus, 1 nM 1.25D3
Experimental: (§5) To assess the effect of pimecrolimus on the innate immune response of the epidermis, cultures of normal human keratinocytes (NHEK) are stimulated with a combination of a concentration of 10 nM pimecrolimus and of 1 nM 1.25D3. Gene expression of TLR1, TLR2, TLR4, TLR6 and CD14 are evaluated by qPCR. For CD14 protein expression, a Western Blot is performed and bands are quantified by densitometry using lmagej. Vehicle treated keratinocytes serve as controls. Cathelicidin protein expression is evaluated by immunofluorescence staining.

TLR6 = TLR6 gene expression by qPCR in NHEK; assay type: cell-based, human; conditions: Example 3; 10 nM pimecrolimus, 1 nM 1.25D3
Experimental: as §5

CD14 = CD14 gene expression by qPCR in NHEK; assay type: cell-based, human; conditions: for CD14 mRNA expression (Mean): 10 nM pimecrolimus; for CD14 mRNA expression (Means of N = 3): Example 6, 10 nM Pimecrolimus, 1 nM 1,25D3
Experimental: as §5, §3, §4

[4] = in the presence of low dose 1,25D3 and Malp-2

CC[C@@H]1/C=C(\C)C[C@H](C)C[C@H](OC)[C@H]2O[C@@](O)(C(=O)C(=O)N3CCCC[C@H]3C(=O)O[C@H](/C(C)=C/[C@@H]3CC[C@H](Cl)[C@H](OC)C3)[C@H](C)[C@@H](O)CC1=O)[C@H](C)C[C@@H]2OC [Pimecrolimus, pimecrolimus]
Bacterial growth OD600 (Mean) ([1]; 0 h): 0.2253 | Bacterial growth OD600 (Mean) ([1]; 2 h): 0.2557 | Bacterial growth OD600 (Mean) ([1]; 4 h): 0.2807 | Bacterial growth OD600 (Mean) ([1]; 5 h): 0.343 | Bacterial growth OD600 (Mean) ([1]; 6 h): 0.4507 | Bacterial growth OD600 (Mean) ([1]; 8 h): 0.6843 | Antimicrobial effect of keratinocytes against S. aureus ΔmprF (in words) ([1]; summary of Table 1): increases the ability of keratinocytes to kill Staphylococcus aureus ΔmprF | Bacterial growth OD600 (Mean) ([2]; 0 h): 0.3083 | Bacterial growth OD600 (Mean) ([2]; 2 h): 0.3387 | Bacterial growth OD600 (Mean) ([2]; 4 h): 0.4157 | Bacterial growth OD600 (Mean) ([2]; 5 h): 0.4333 | Bacterial growth OD600 (Mean) ([2]; 6 h): 0.4227 | Bacterial growth OD600 (Mean) ([2]; 8 h): 0.601 | Direct antimicrobial effect (in words) ([2]; summary of Table 2): does not have an antimicrobial effect by itself | Cathelicidin mRNA expression (Mean) (cathelicidin; Example 2, with 10 nM Pimecrolimus + 0.1 μg/ml LPS): 8.67 | Cathelicidin mRNA expression (Mean) (cathelicidin; Example 2, with 10 nM Pimecrolimus + 0.1 μg/ml Malp-2): 26.08 | Cathelicidin mRNA expression (Mean) (cathelicidin; Example 2, with 10 nM Pimecrolimus + 1 μg/ml PGN): 9.81 | Cathelicidin mRNA expression (Mean) (cathelicidin; Example 2, with 10 nM Pimecrolimus + 10 μg/ml LTA): 18.56 | Cathelicidin mRNA expression (Mean) (cathelicidin; Example 2, with 10 nM Pimecrolimus, no TLR ligand (control row)): 2.64 | Cathelicidin mRNA expression (Mean) (cathelicidin; Example 4, 10 nM pimecrolimus, 1 nM 1.25 D3, 0.1 μg/ml Malp-2 or combination): 22.57 | Cathelicidin mRNA expression (means) (cathelicidin; Example 5, Experiment 1, with 0.1 μg/ml Malp-2, 10 nM pimecrolimus): 2.98 | Cathelicidin mRNA expression (means) (cathelicidin; Example 5, Experiment 1, without Malp-2, 10 nM pimecrolimus): 1.33 | Cathelicidin mRNA expression (means) (cathelicidin; Example 5, Experiment 2, with 0.1 μg/ml Malp-2, 10 nM pimecrolimus): 3.07 | Cathelicidin mRNA expression (means) (cathelicidin; Example 5, Experiment 2, without Malp-2, 10 nM pimecrolimus): 2.40 | Cathelicidin mRNA expression (Means of N = 3) (cathelicidin; 0 h): 1.20 | Cathelicidin mRNA expression (Means of N = 3) (cathelicidin; 8 h): 1.82 | Cathelicidin mRNA expression (Means of N = 3) (cathelicidin; 24 h): 1.75 | Cathelicidin mRNA expression (Means of N = 3) (cathelicidin; 48 h): 2.06 | Concentration at which cathelicidin mRNA expression peaks (bell-shaped dose response) (cathelicidin; Example 7): 20 nM | Cathelicidin mRNA expression (Mean) (cathelicidin; Example 7, 5 nM PIM): 1.46 | Cathelicidin mRNA expression (Mean) (cathelicidin; Example 7, 10 nM Pim): 2.26 | Cathelicidin mRNA expression (Mean) (cathelicidin; Example 7, 20 nM Pim): 82.72 | Cathelicidin mRNA expression (Mean) (cathelicidin; Example 7, 40 nM Pim): 3.37 | Cathelicidin mRNA expression (Mean) (cathelicidin; Example 7, 60 nM Pim): 1.78 | Cathelicidin mRNA expression (Mean) (cathelicidin; Example 8, 0.01 nM PIM with 1 nM 1.25D3, 24 hours): 4.56 | Cathelicidin mRNA expression (Mean) (cathelicidin; Example 8, 0.01 nM PIM, no 1.25D3, 24 hours): 1.04 | Cathelicidin mRNA expression (Mean) (cathelicidin; Example 8, 0.1 nM PIM with 1 nM 1.25D3, 24 hours): 4.19 | Cathelicidin mRNA expression (Mean) (cathelicidin; Example 8, 0.1 nM PIM, no 1.25D3, 24 hours): 0.47 | Cathelicidin mRNA expression (Mean) (cathelicidin; Example 8, 1 nM PIM with 1 nM 1.25D3, 24 hours): 10.92 | Cathelicidin mRNA expression (Mean) (cathelicidin; Example 8, 1 nM PIM, no 1.25D3, 24 hours): 1.61 | Cathelicidin mRNA expression (Mean) (cathelicidin; Example 8, 10 nM PIM with 1 nM 1.25D3, 24 hours): 99.45 | Cathelicidin mRNA expression (Mean) (cathelicidin; Example 8, 10 nM PIM, no 1.25D3, 24 hours): 9.81 | Increase of cathelicidin mRNA expression, pimecrolimus in conjunction with calciferol versus pimecrolimus alone (cathelicidin; at the 1 nM and 10 nM concentrations of pimecrolimus, 1 nM calciferol): > 2 times | Transcript and protein abundance of antimicrobial genes (in words) (cathelicidin; in the presence of Toll 2/6 ligand Malp-2, summary of Tables 3-5 (cathelicidin, HBD2, HBD3)): increases transcript and protein abundance of antimicrobial genes | Cathelicidin transcript abundance (in words) (cathelicidin; [4]): enhances cathelicidin transcript abundance | HBD2 expression (Mean) ([3]; with 10 nM Pimecrolimus + 0.1 μg/ml LPS): 1.34 | HBD2 expression (Mean) ([3]; with 10 nM Pimecrolimus + 0.1 μg/ml Malp-2): 867.92 | HBD2 expression (Mean) ([3]; with 10 nM Pimecrolimus + 1 μg/ml PGN): 0.51 | HBD2 expression (Mean) ([3]; with 10 nM Pimecrolimus + 10 μg/ml LTA): 1.77 | HBD2 expression (Mean) ([3]; with 10 nM Pimecrolimus, no TLR ligand (control row)): 6.53 | TLR1 mRNA expression (Mean) (TLR1): 3.16 | TLR6 mRNA expression (Mean) (TLR6): 4.40 | CD14 mRNA expression (Mean) (CD14; Example 3, 1 nM 1.25D3): 2.07 | CD14 mRNA expression (Mean) (CD14; Example 4, 1 nM 1.25 D3, 0.1 μg/ml Malp-2 or combination): 2.07 | CD14 mRNA expression (Means of N = 3) (CD14; 0 h): 1.54 | CD14 mRNA expression (Means of N = 3) (CD14; 8 h): 1.46 | CD14 mRNA expression (Means of N = 3) (CD14; 24 h): 2.10 | CD14 mRNA expression (Means of N = 3) (CD14; 48 h): 1.04 | Effect on 1,25D3-induced CD14 mRNA expression (in words) (CD14; after 8 hours of treatment): suppressed | Effect on 1,25D3-induced CD14 mRNA expression (in words) (CD14; after 24 hours): enhanced | CD14 expression (in words) (CD14; [4]): increasing
